Data set [1] addresses T1, human Kv1.1/Kvβ1 potassium ion channel complex (Homo sapiens, UniProt Q09470+Q14722).
T1 construct: expressed in transfected cells; host or cells: Xenopus oocytes injected with cRNA
Briefly: Inhibiting the inactivation of Kv1.1/Kvβ1 potassium ion channel complex, voltage clamp current recordings in Xenopus oocytes. The format is cell-based. The conditions noted are these: relative to control oocytes without test compound, read-out: Percent Increase in Steady State Current (@ concentration shown in parentheses). As for the experimental part: Compounds useful in this invention were examined for their ability to inhibit the inactivation of the human Kv1.1/Kvβ1 potassium ion channel complex in vitro using electrophysiological current recordings on inactivating Kv1.1/Kvβ1channels expressed in Xenopus oocytes. The following procedure was used.
Xenopus oocytes were harvested from frogs under general anesthesia using aseptic techniques. Oocytes were treated with 2 mg/ml collagenase for 1-1.5 hr, defolliculated, and injected with 40 nL cRNA (a mixture of hKv1.1 and hKvβ1) produced using standard molecular biological techniques (Sambrook, et al., 1989, Molecular Cloning: A Laboratory Manual). The concentration of hKv1.1/hKvβ1 cRNA varies, but was generally about 50 ng/μL hKv1.1 and […] hkβ1.
Currents were recorded using standard voltage clamp amplifiers at room temperature. Recordings were performed in the bath solution “ND-96” containing 96 mM NaCl, 2 mM KCl, 1 mm CaCl2, 1 mM MgCl2, 10 mM HEPES and […] Gentamycin (pH=7.6). The pipette (electrode) solution generally consisted of 3 mM KCl. Electrodes were made from WPI TW150F-4 borosilicate glass (or equivalent) and typically had resistances of 0.5-1.5 Mohms. The standard current—voltage (IV) pulse protocol consisted of voltage steps from −60 mV to +50 mV, in 10 mV increments for 200 ms, at a frequency of one IV set per 2 minutes. Data were digitized and analyzed by standard software packages.
Test compounds where first dissolved in DMSO to an initial concentration of 1-100 mM. Working dilutions of 1:2000 to 1:500 were made in the bath solution for final concentrations in the micromolar range. The bath solutions containing the test compounds were applied by bath perfusion using gravity or pump-driven flow. A minimum of 2 mL (10 times the bath volume) over 3 minutes were flowed for each compound concentration tested. Data were averaged across at least 3 cells tested for each concentration.
Test compounds were examined for their ability to inhibit the inactivation of the steady state portion of the IV curve.

T1 sequence (Q09470 whole entry): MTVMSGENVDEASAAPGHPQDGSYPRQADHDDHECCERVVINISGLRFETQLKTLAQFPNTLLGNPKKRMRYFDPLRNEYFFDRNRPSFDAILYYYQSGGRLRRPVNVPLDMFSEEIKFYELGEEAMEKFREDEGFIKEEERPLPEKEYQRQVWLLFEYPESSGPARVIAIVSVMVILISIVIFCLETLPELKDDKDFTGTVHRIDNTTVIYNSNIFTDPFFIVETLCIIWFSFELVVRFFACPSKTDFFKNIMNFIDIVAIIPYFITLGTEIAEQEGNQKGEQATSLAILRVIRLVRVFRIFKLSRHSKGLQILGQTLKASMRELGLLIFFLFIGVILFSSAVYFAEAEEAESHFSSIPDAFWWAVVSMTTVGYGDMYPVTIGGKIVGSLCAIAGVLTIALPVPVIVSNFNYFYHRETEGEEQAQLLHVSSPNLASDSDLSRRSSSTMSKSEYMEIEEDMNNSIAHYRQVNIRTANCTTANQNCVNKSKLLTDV
T1 sequence (Q14722 whole entry): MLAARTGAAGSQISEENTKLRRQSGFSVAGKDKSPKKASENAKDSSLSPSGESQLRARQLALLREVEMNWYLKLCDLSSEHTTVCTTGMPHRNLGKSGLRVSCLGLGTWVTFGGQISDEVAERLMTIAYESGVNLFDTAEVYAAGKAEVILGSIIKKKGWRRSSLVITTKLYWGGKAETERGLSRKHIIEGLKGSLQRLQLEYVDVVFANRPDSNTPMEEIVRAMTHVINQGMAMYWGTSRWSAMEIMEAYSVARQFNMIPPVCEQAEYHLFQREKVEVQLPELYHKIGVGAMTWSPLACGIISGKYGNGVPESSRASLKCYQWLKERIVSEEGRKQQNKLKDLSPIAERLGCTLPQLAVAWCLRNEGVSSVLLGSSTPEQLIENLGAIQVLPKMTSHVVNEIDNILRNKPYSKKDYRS

`CC1(C)CC(=O)C(C(=O)Nc2ccc(Cl)cc2C(F)(F)F)C(=O)C1` [Example 7, N-[4-chloro-2-(trifluoromethyl)phenyl]-4,4-dimethyl-2,6-dioxocyclohexanecarboxamide]: the activation at 100 µM in data set [1] is 45%.
With `CCOC(=O)C1C(=O)C(C(=O)Nc2cccc(C(F)(F)F)c2)C(=O)C2CCCCC21` (centres unmarked) [Example 31, 2,4-Dioxo-3-(3-trifluoromethyl-phenylcarbamoyl)-decahydro-naphthalene-1-carboxylic acid ethyl ester], the activation at 50 µM in data set [1] turned out to be 227%.
For `CCC1(C)CC(=O)C(C(=O)Nc2ccc(Cl)c(C(F)(F)F)c2)C(=O)C1` (centres unmarked) [Example 14, N-(4-chloro-3-trifluoromethylphenyl)-4-ethyl-4-methyl-2,6-dioxocyclohexanecarboxamide], the melting point (commonly the temperature, or range, at which the solid turns liquid) is 87 to 88 °C. In addition, in data set [1], the activation at 50 µM stood at 98%.
Take `CC1(C)CC(=O)C(C(=O)Nc2ccc([N+](=O)[O-])cc2)C(=O)C1` [Example 12, 4,4-dimethyl-N-(4-nitrophenyl)-2,6-dioxocyclohexanecarboxamide]: in data set [1], the activation at 100 µM worked out at 104%.
Turning to `CC1(C)COC(=O)C(C(=O)Nc2cccc(C(F)(F)F)c2)C1=O` (centres unmarked) [Example 24, N-[3-(trifluoromethyl)phenyl]-5,5-dimethyl-2,4-dioxotetrahydro-2H-pyran-3-carboxamide], the activation at 50 µM in data set [1] was determined as 5%.
`COCC1C(=O)C(C(=O)Nc2cccc(C(F)(F)F)c2)C(=O)CC1(C)C` (centres unmarked) [Example 33, 3-Methoxymethyl-4,4-dimethyl-2,6-dioxo-cyclohexanecarboxylic acid (3-trifluoromethyl-phenyl)-amide]: the activation at 50 µM in data set [1] turned out to be 1%.
`CC1(C)CC(=O)C(C(=O)Nc2cccc(C(F)(F)F)c2)C(=O)O1` (centres unmarked) [Example 21, N-[3-(trifluoromethyl)phenyl]-6,6-dimethyl-2,4-dioxotetrahydro-2H-pyran-3-carboxamide] had a melting point of 149.6 to 150.1 °C. In data set [1], the activation at 50 µM was 13%.
In the case of `O=C1OC2(CCCC2)OC(=O)C1C(=S)Nc1ccc(Cl)c(C(F)(F)F)c1` [Example 34, 7,9-Dioxo-6,10-dioxa-spiro[4.5]decane-8-carbothioic acid(4-chloro-3-trifluoromethyl-phenyl)-amide], the activation at 300 µM in data set [1] (300 μm) turned out to be 95%.
For `CC1(C)CC(=O)C(C(=O)Nc2ccc(Cl)c(C(F)(F)F)c2)C(=O)C1` [Example 5, N-[4-chloro-3-(trifluoromethyl)phenyl]-4,4-dimethyl-2,6-dioxocyclohexanecarboxamide], the activation at 50 µM in data set [1] was found to be 16%.
Take `CC1(C)CC(=O)C(C(=O)Nc2ccccc2[N+](=O)[O-])C(=O)C1` [Example 6, 4,4-dimethyl-N-(2-nitrophenyl)-2,6-dioxocyclohexanecarboxamide]: in data set [1], the activation at 100 µM is 58%.
`CC1(C)CC(=O)C(C(=O)Nc2cc(Cl)cc(Cl)c2)C(=O)C1F` (centres unmarked) [Example 28, 3-Fluoro-4,4-dimethyl-2,6-dioxo-cyclohexanecarboxylic acid(3,5-dichloro-phenyl)-amide]: in data set [1], the activation at 50 µM stood at 279%.
Still for that read-out and setting: the result for `CC1(c2ccccc2)CCC(=O)C(C(=O)Nc2cccc(C(F)(F)F)c2)C1=O` (centres unmarked) [Example 32, 3-Methyl-2,6-dioxo-3-phenyl-cyclohexanecarboxylic acid(3-trifluoromethyl-phenyl)-amide] reads 6%; that for `CC1(C)COC(=O)C(C(=O)Nc2ccc(C(F)(F)F)cc2)C1=O` (centres unmarked) [Example 25, N-[4-(trifluoromethyl)phenyl]-5,5-dimethyl-2,4-dioxotetrahydro-2H-pyran-3-carboxamide], 10%.
`CC1(C)CC(=O)C(C(=S)Nc2ccc(Cl)c(Cl)c2)C(=O)C1` [Example 3, N-(3,4-dichlorophenyl)-4,4-dimethyl-2,6-dioxocyclohexanecarbothioamide] had a melting point of 113 to 116 °C.
As to `CC1(C)CC(=O)C(C(=O)Nc2cccc(C(F)(F)F)c2)C(=O)C1c1ccccc1` (centres unmarked) [Example 30, 4,4-Dimethyl-2,6-dioxo-3-phenyl-cyclohexanecarboxylic acid(3-trifluoromethyl-phenyl)-amide], the activation at 50 µM in data set [1] came to 8%.
